Reference: patent US20170266186A1, “USE OF INHIBITORS OF BRUTON'S TYROSINE KINASE (BTK)” (Pharmacyclics LLC, priority 2011, published 2017)
Marks after values point to notes of the source that are not given here.

What was measured:
[1] = test system: Btk, PLCy2, Erk, JNK and Akt phosphorylation; assay: Btk signaling in MCL cell lines after anti-IgM, CXCL12 and CXCL13 stimulation; settings: following anti-IgM, CXCL12 and CXCL13 stimulations
Mino cells [2] = assay: migration assay, CXCL13 stimulated; settings: dose-dependently from 1 nM to 1 μM
WSU-NHL = assay: growth inhibition by PCI-32765, WSU-NHL; type: cell-based; settings: Homo sapiens, FL-transformed
LY19 = assay: growth inhibition by PCI-32765, LY19; type: cell-based; settings: Homo sapiens; LY19, DLBCL, GCB (CARD11)
LY10 = assay: growth inhibition by PCI-32765, LY10; type: cell-based; settings: Homo sapiens; LY10, DLBCL, ABC
[3] = test system: relapsed/refractory subjects with MCL; assay: phase II study of PCI-32765 in relapsed/refractory MCL; settings: for Discontinuation: Adverse event / Discontinuation: Disease Progression / Death on study: 560 mg/day
Mino and Jekol cells = assay: chemokine and cytokine secretion of MCL cell lines after BCR activation or in stromal co-culture; type: cell-based, human; settings: following BCR activation or in co-culture
clinical = settings: human, plasma; for AUC(0-inf): Mean (CV) AUC0-∞; for AUC(0-t): Mean AUC0-24h, steady state (Day 8)
pBtk, pPLCy2 and pAkt = settings: alone or in co-culture with M2 cells
primary MCL = assay: actin polymerization of primary MCL in co-culture; settings: 100 nM (p<0.001)
DOHH2 = assay: growth inhibition by PCI-32765, DOHH2; type: cell-based; settings: Homo sapiens, DOHH-2; DOHH2, FL-transformed
Mino cells [4] = assay: co-culture assay: migration of Mino cells beneath M2-10B4 stromal cells (pseudoemperipoliesis); type: cell-based, human; settings: significant at 100 nM (p<0.01) and 1000 nM (p<0.001)
DoHH2 cells = assay: Alamar blue assay in DoHH2 cells; type: cell-based
[5] = test system: pBtk (Y223, Y551), pPLCy2; settings: primary MCL and normal B cells
Jeko-1 = assay: growth inhibition by PCI-32765, Jeko-1; type: cell-based; settings: Homo sapiens; Jeko-1, Mantle cell

C=CC(=O)N1CCC[C@@H](n2nc(-c3ccc(Oc4ccccc4)cc3)c3c(N)ncnc32)C1 [PCI-32765, (R)-1-(3-(4-amino-3-(4-phenoxyphenyl)-1H-pyrazolo[3,4-d]pyrimidin-1-yl)piperidin-1-yl)prop-2-en-1-one]
phosphorylation of Btk and downstream PLCy2, Erk, JNK and Akt [1]: inhibited
CXCL13 stimulated migration of Mino cells (Mino cells [2]): significantly inhibited
GI50 (WSU-NHL): 120 nM
GI50 (LY19): > 10000 nM
GI50 (LY10): 100 nM
Discontinuation: Adverse event ([3]; Bortezomib-Exposed (N = 27)): 1 (4) # (%)
Discontinuation: Disease Progression ([3]; Bortezomib-Exposed (N = 27)): 6 (22) # (%)
Death on study ([3]; Bortezomib-Exposed (N = 27), pneumonia): 1 (4) # (%)
Death on study ([3]; Bortezomib-Naïve (N = 41)): 0 (0) # (%)
Discontinuation: Adverse event ([3]; Bortezomib-Naïve (N = 41)): 2 (5) # (%)
Discontinuation: Disease Progression ([3]; Bortezomib-Naïve (N = 41)): 7 (17) # (%)
Death on study ([3]; Total (N = 68)): 1 (2) # (%)
Discontinuation: Adverse event ([3]; Total (N = 68)): 3 (4) # (%)
Discontinuation: Disease Progression ([3]; Total (N = 68)): 13 (19) # (%)
myelosuppression ([3]; during the study): No significant myelosuppression
production of human IL-10, MDC, MIP-1α, MIP-1β, TNFα, CCL17 and CCL21 (Mino and Jekol cells): dose dependently and potently suppressed
AUC(0-inf) (clinical; 1.25 mg/kg, Day 1, cohort 1, 1.25 mg/kg): 181 ng·h/mL
Tmax (clinical; 1.25 mg/kg, Mean (CV) Tmax, Day 1, cohort 1, 1.25 mg/kg): 1 h
AUC(0-t) (clinical; 1.25 mg/kg, cohort 1, 1.25 mg/kg): 301 ng·h/mL
AUC(0-inf) (clinical; 5 mg/kg, Day 1, cohort 3, 5 mg/kg): 419 ng·h/mL
Tmax (clinical; 5 mg/kg, Mean (CV) Tmax, Day 1, cohort 3, 5 mg/kg): 2.3 h
AUC(0-t) (clinical; 5 mg/kg, cohort 3, 5 mg/kg): 1580 ng·h/mL
AUC(0-inf) (clinical; 8.3 mg/kg, Day 1, cohort 4, 8.3 mg/kg): 923 ng·h/mL
AUC(0-inf) (clinical; 8.3 mg/kg, Day 1, cohort CD (continuous dosing), 8.3 mg/kg): 1030 ng·h/mL
Tmax (clinical; 8.3 mg/kg, Mean (CV) Tmax, Day 1, cohort 4, 8.3 mg/kg): 1.8 h
Tmax (clinical; 8.3 mg/kg, Mean (CV) Tmax, Day 1, cohort CD (continuous dosing), 8.3 mg/kg): 2.2 h
AUC(0-t) (clinical; 8.3 mg/kg, cohort 4, 8.3 mg/kg): 2330 ng·h/mL
AUC(0-t) (clinical; 8.3 mg/kg, cohort CD (continuous dosing), 8.3 mg/kg): 1540 ng·h/mL
AUC(0-inf) (clinical; 12.5 mg/kg, Day 1, cohort 5, 12.5 mg/kg): 1550 ng·h/mL
Tmax (clinical; 12.5 mg/kg, Mean (CV) Tmax, Day 1, cohort 5, 12.5 mg/kg): 1.7 h
AUC(0-t) (clinical; 12.5 mg/kg, cohort 5, 12.5 mg/kg): 2940 ng·h/mL
AUC(0-inf) (clinical; 560 mg, Day 1, Fixed cohort, 560 mg fixed dose): 749 ng·h/mL
Tmax (clinical; 560 mg, Mean (CV) Tmax, Day 1, Fixed cohort, 560 mg fixed dose): 1.8 h
AUC(0-t) (clinical; 560 mg, Fixed cohort, 560 mg fixed dose): 1550 ng·h/mL
Tmax (clinical; […], Mean (CV) Tmax, Day 1, cohort 2, […]): 2.1 h
Tmax (clinical; time to maximum plasma concentration (Tmax), range over dose levels): 1 to 2.3 h
pBtk, pPLCy2 and pAkt in Mino cells (pBtk, pPLCy2 and pAkt): dose-dependently inhibited
actin polymerization of primary MCL in co-culture (primary MCL): suppressed
GI50 (DOHH2): 120 nM
migration of Mino cells beneath the stromal cells (Mino cells [4]): dose-dependently inhibited
sensitivity of DOHH2 cell line (DoHH2 cells): moderately sensitive
concentrations inhibiting pBtk (Y223, Y551) and reducing pPLCy2 (Y759, Y1217) [5]: ≥ 10 nM
GI50 (Jeko-1): > 10000 nM
